Data from paper PMC10699557, “A recombinant approach for stapled peptide discovery yields inhibitors of the RAD51 recombinase” (Chemical Science, 2023).
Numbered stars: 1 amine (or outer) side, 2 acyl side, 3 side chain; on linkers, the order of the positions; unused ones are H or OH. Bridge positions count the residues as written; N and C are the ends. Peptide text beside a SMILES is read from it. X1 = Nc1nc(CC[*:1])cc(CC[*:2])n1

Columns and labels:
HumRadA22 = HumRadA22 (Pyrococcus furiosus, UniProt O74036); assay: Isothermal titration calorimetry (ITC) of peptide binding; design: species or system archaeal RadA mutant with human Rad51 surface residues; settings: Fig. S3; stapled Arg9-fused peptide
Procedure: We then evaluated the binding of free peptides to HumRadA22 using FP competition assay and isothermal titration calorimetry (Table 1 and Fig. 3B and C). […] All three peptides SP2, SP24 and SP30 bound with similar low-nanomolar affinities in ITC, and the binding appears to be slightly weaker relative to the linear BRC8-2 template (Fig. 3C).
(§1) Isothermal titration calorimetry
(§2) Peptides were resuspended in MilliQ water to 10 times the desired final concentration.
This was then diluted 10x with the ITC buffer to obtain the final titrant solution (20 mM CHES pH 9.5, 150 mM NaCl, 0.1% Tween-20). HumRadA22 was buffer-exchanged on a NAP-5 desalting column (Cytiva) into ITC buffer and protein concentration was adjusted to 10:9 of the desired final value. […]
(§3) Dried peptides were dissolved in MilliQ water to 0.3 mg/ml, and then two-fold diluted in 20 mM sodium phosphate, pH 7.4, giving a final solution of 0.15 mg/ml peptide in 10 mM sodium phosphate. CD spectra of selected peptides were recorded on an AVIV 410 circular dichroism spectropolarimeter using a 1 mm path length quartz cuvette. […]
(§4) The ability of linear and stapled BRC repeat peptides to dissociate RAD51-ssDNA nucleofilament was evaluated using an electrophoretic mobility shift assay (EMSA). […]

[1] = system: RAD51:dT60 nucleoprotein filament (full-length human RAD51); assay: Electrophoretic mobility shift assay (EMSA) of nucleoprotein filament disruption; format: biochemical; settings: 5 μM full-length human RAD51, 100 nM FAM-dT60, varying peptide concentrations; 50 mM HEPES pH 7.4, 1 mM ATP
Procedure: We evaluated the effect of stapled peptides SP2, SP24 and SP30 on the nucleoprotein filament using electrophoretic mobility shift assay (EMSA, Fig. 3D). A fluorescently labelled dT60 oligonucleotide was incubated with full-length RAD51, after which the peptides were added at different concentrations before separating the products on a polyacrylamide gel.
as §1, §2
This was then diluted 10x with the ITC buffer to obtain the final titrant solution (20 mM CHES pH 9.5, 150 mM NaCl, 0.1% Tween-20). HumRadA22 was buffer-exchanged on a NAP-5 desalting column (Cytiva) into ITC buffer and protein concentration was adjusted to 10:9 of the desired final value. One ninth volume of MilliQ water was added to the solution to bring the protein concentration to the desired final value, while maintaining identical buffer:MilliQ volume proportions in both the syringe and the cell. ITC was carried out using a Microcal ITC200 or Malvern PEAQ ITC instruments at 25°C with a 5.00 μCal reference power DP value, stirring speed of 500-750 rpm, 2 sec filter period. Injection spacing, speed and volume, cell/syringe concentrations as well as the number of injections were adjusted for each peptide and its binding properties. ITC data were fitted using a single-site binding model using the Microcal ITC data analysis program in the Origin 7.0 package. Data points affected by baseline spikes were omitted from the analysis.
Circular dichroism spectroscopy
as §3, §4

CC(C)C[C@@H]1NC(=O)[C@H](CCCCN)NC(=O)[C@H](CCCCN)NC(=O)CNC(=O)[C@H](CO)NC(=O)[C@H](C)NC(=O)[C@H]([C@@H](C)O)NC(=O)[C@H](CO)NC(=O)[C@H](Cc2ccccc2)NC(=O)CNC(=O)[C@H](CO)NC(=O)[C@@H](NC(=O)CNC(=O)CNC(=O)[C@H](CCCNC(=N)N)NC(=O)[C@H](CCCNC(=N)N)NC(=O)[C@H](CCCNC(=N)N)NC(=O)[C@H](CCCNC(=N)N)NC(=O)[C@H](CCCNC(=N)N)NC(=O)[C@H](CCCNC(=N)N)NC(=O)[C@H](CCCNC(=N)N)NC(=O)[C@H](CCCNC(=N)N)NC(=O)[C@H](CCCNC(=N)N)NC(=O)CN)CSCCc2cc(nc(N)n2)CCSC[C@@H](C(=O)N[C@@H](CCC(N)=O)C(=O)N[C@@H](CCCCN)C(=O)N[C@@H](C)C(=O)N[C@H](C(=O)N[C@@H](CCCCN)C(=O)N[C@@H](CC(C)C)C(=O)N[C@@H](Cc2ccccc2)C(=O)N[C@@H](CO)C(=O)NCC(=O)O)C(C)C)NC(=O)[C@H](C)NC(=O)[C@H](CCC(N)=O)NC(=O)[C@H]([C@@H](C)O)NC(=O)[C@H](CO)NC(=O)[C@H](C(C)C)NC(=O)[C@H](CC(N)=O)NC1=O [SP31] (H-GRRRRRRRRRGGCSGFSTASGKKLNVSTQACQKAVKLFSG-OH; linker 13-31 via X1)
Binding affinity towards HumRadA22 by ITC (in words) (HumRadA22): high affinity

CC(C)C[C@@H]1NC(=O)[C@H](CCCCN)NC(=O)[C@H](CCCCN)NC(=O)CNC(=O)[C@H](CO)NC(=O)[C@H](C)NC(=O)[C@H]([C@@H](C)O)NC(=O)[C@H](CO)NC(=O)[C@H](Cc2ccccc2)NC(=O)CNC(=O)[C@H](CO)NC(=O)[C@@H](NC(=O)CN)CSCCc2cc(nc(N)n2)CCSC[C@@H](C(=O)N[C@@H](CCC(N)=O)C(=O)N[C@@H](CCCCN)C(=O)N[C@@H](C)C(=O)N[C@H](C(=O)N[C@@H](CCCCN)C(=O)N[C@@H](CC(C)C)C(=O)N[C@@H](Cc2ccccc2)C(=O)N[C@@H](CO)C(=O)NCC(=O)O)C(C)C)NC(=O)[C@H](C)NC(=O)[C@H](CCC(N)=O)NC(=O)[C@H]([C@@H](C)O)NC(=O)[C@H](CO)NC(=O)[C@H](C(C)C)NC(=O)[C@H](CC(N)=O)NC1=O [SP30] (H-GCSGFSTASGKKLNVSTQACQKAVKLFSG-OH; linker 2-20 via X1)
Depolymerisation of RAD51 from single-stranded DNA (EMSA) [1]: depolymerise RAD51 from single-stranded DNA to similar extent
